Results: patent US10028960B2, “Pyrimidine compounds as JAK kinase inhibitors” (THERAVANCE BIOPHARMA R&D IP, LLC, priority 2016, dated 2018)

Columns and labels:
Tyk2 = Tyk2 (Homo sapiens (Human), UniProt P29597); assay: LanthaScreen JAK biochemical assay, Tyk2
Procedure: (§1) A panel of four LanthaScreen JAK biochemical assays (JAK1, 2, 3 and Tyk2) were carried in a common kinase reaction buffer (50 mM HEPES, pH 7.5, 0.01% Brij-35, 10 mM MgCl2, and 1 mM EGTA). Recombinant GST-tagged JAK enzymes and a GFP-tagged STAT1 peptide substrate were obtained from Life Technologies.

JAK1 = JAK1 (Homo sapiens (Human), UniProt P23458); assay: LanthaScreen JAK biochemical assay, JAK1; details: for Ki: read-out: JAK 1 (pKi) (converted)
Procedure: as §1

JAK2 = JAK2 (Homo sapiens (Human), UniProt O60674); assay: LanthaScreen JAK biochemical assay, JAK2
Procedure: as §1

[1] = test system: IL-13 induced STAT6 phosphorylation in HT-29 human colorectal adenocarcinoma cells; assay: Cellular JAK potency assay: inhibition of IL-13 induced STAT6 phosphorylation; assay type: cell-based; details: IL-13 induced STAT6 phosphorylation, HT-29 cells
Procedure: The potency of test compounds for inhibition of the JAK-dependent cytokine interleuken-13 (IL-13) was assessed by measuring IL-13 (IL-13, R&D Systems) induced STAT6 phosphorylation in HT-29 human colorectal adenocarcinoma cells (ATCC).
The anti-STAT6 antibody (Cell Signaling Technologies) was conjugated to AlphaScreen acceptor beads (Perkin Elmer), while the anti-pSTAT6 (pTyr641) antibody (Cell Signaling Technologies) was biotinylated using EZ-Link Sulfo-NHS-Biotin (Thermo Scientific).
HT-29 cells were grown at 37° C. in a 5% CO2 humidified incubator in McCoy's 5a Modified medium (ATCC) supplemented with 10% FBS (Hyclone), 100 U/mL penicillin, 100 μg/mL streptomycin (Life Technologies), and 2 mM GlutaMAX (Life Technologies). On day 1 of the assay, cells were seeded at a 7,500 cells/well density in white poly-D-lysine-coated 384-well plates (Corning) with 25 μL medium, and were allowed to adhere overnight in the incubator. On day 2 of the assay, the medium was removed and replaced with 12 μL of assay buffer (Hank's Balanced Salt Solution/HBSS, 25 mM HEPES, and 1 mg/ml bovine serum albumin/BSA) containing dose-responses of test compounds. Compounds were serially diluted in DMSO and then diluted another 1000-fold in media to bring the final DMSO concentration to 0.1%. Cells were incubated with test compounds at 37° C. for 1 h, and followed by the addition of 12 μL of pre-warmed IL-13 (12 ng/ml in assay buffer) for stimulation. After incubating at 37° C. for 30 min, the assay buffer (containing compound and IL-13) was removed, and 10 μL of cell lysis buffer (25 mM HEPES, 0.1% SDS, 1% NP-40, 5 mM MgCl2, 1.3 mM EDTA, 1 mM EGTA, and supplement with Complete Ultra mini protease inhibitors and PhosSTOP from Roche Diagnostics). The plates were shaken at ambient temperature for 30 min before the addition of detection reagents. A mixture of biotin-anti-pSTAT6 and anti-STAT6 conjugated acceptor beads was added first and incubated at ambient temperature for 2 h, followed by the addition of streptavidin conjugated donor beads (Perkin Elmer). After a minimum of 2 h incubation, the assay plates were read on the EnVision plate reader.
Results were expressed as the negative logarithm of the IC50 value, pIC50.

JAK3 = JAK3 (Homo sapiens (Human), UniProt P52333); assay: LanthaScreen JAK biochemical assay, JAK3
Procedure: as §1

Chain of JAK1 (P23458 whole entry): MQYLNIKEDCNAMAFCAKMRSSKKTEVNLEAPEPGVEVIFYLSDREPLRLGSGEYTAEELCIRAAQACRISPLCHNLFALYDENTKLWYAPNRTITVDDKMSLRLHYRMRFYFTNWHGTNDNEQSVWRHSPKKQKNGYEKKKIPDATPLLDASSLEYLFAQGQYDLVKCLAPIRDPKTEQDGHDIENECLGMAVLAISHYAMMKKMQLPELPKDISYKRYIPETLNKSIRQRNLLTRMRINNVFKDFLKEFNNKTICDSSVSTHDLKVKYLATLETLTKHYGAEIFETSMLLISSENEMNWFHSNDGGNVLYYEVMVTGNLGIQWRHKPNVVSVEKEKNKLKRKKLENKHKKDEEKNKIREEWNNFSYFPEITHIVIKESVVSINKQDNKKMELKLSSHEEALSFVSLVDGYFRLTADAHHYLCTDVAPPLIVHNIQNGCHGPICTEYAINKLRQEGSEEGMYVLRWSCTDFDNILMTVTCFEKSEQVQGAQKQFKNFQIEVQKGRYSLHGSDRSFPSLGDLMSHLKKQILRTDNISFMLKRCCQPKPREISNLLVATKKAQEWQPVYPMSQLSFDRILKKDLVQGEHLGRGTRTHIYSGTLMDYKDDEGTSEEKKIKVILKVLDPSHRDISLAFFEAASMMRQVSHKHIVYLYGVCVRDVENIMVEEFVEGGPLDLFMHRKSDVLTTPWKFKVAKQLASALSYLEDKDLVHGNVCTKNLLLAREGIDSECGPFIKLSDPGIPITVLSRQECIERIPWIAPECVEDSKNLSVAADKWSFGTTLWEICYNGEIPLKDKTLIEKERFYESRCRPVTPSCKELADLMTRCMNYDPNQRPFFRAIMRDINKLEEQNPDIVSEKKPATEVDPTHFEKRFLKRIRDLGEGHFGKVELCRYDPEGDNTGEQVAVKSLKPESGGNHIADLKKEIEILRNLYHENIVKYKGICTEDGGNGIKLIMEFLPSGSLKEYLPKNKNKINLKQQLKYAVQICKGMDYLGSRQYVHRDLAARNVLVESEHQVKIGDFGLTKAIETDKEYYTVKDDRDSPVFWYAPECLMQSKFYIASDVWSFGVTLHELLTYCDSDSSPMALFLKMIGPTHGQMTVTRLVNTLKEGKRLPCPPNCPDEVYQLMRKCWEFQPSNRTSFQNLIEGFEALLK
Chain of Tyk2 (P29597 whole entry): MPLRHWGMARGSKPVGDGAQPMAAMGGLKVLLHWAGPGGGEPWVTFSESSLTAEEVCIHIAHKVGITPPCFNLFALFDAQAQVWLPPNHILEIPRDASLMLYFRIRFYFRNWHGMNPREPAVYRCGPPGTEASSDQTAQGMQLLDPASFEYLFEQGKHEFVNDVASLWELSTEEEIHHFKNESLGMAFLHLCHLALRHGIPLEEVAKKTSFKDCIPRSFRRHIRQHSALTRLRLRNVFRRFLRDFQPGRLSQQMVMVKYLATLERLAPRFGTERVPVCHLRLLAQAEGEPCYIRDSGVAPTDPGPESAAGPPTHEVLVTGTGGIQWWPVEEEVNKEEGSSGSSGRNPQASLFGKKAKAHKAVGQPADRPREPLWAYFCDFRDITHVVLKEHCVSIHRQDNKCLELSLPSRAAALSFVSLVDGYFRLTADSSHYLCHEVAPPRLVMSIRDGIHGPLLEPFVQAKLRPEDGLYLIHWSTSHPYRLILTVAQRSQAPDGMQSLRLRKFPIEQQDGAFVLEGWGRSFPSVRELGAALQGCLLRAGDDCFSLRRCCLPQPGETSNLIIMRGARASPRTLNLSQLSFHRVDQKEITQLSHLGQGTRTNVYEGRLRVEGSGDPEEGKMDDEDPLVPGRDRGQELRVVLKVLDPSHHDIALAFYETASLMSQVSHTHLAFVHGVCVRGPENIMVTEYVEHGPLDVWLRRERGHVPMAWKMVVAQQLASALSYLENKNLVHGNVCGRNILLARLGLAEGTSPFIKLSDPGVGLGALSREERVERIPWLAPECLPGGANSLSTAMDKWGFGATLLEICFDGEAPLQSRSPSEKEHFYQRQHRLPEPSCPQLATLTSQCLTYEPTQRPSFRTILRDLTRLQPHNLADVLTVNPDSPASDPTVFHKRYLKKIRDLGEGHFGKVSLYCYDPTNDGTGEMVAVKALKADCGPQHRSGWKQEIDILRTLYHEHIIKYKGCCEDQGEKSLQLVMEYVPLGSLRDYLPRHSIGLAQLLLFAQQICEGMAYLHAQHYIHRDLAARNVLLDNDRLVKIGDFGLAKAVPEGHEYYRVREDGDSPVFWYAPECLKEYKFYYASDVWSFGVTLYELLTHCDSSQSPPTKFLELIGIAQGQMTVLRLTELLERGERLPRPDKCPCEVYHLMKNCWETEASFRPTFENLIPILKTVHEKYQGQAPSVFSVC
Chain of JAK2 (O60674 whole entry): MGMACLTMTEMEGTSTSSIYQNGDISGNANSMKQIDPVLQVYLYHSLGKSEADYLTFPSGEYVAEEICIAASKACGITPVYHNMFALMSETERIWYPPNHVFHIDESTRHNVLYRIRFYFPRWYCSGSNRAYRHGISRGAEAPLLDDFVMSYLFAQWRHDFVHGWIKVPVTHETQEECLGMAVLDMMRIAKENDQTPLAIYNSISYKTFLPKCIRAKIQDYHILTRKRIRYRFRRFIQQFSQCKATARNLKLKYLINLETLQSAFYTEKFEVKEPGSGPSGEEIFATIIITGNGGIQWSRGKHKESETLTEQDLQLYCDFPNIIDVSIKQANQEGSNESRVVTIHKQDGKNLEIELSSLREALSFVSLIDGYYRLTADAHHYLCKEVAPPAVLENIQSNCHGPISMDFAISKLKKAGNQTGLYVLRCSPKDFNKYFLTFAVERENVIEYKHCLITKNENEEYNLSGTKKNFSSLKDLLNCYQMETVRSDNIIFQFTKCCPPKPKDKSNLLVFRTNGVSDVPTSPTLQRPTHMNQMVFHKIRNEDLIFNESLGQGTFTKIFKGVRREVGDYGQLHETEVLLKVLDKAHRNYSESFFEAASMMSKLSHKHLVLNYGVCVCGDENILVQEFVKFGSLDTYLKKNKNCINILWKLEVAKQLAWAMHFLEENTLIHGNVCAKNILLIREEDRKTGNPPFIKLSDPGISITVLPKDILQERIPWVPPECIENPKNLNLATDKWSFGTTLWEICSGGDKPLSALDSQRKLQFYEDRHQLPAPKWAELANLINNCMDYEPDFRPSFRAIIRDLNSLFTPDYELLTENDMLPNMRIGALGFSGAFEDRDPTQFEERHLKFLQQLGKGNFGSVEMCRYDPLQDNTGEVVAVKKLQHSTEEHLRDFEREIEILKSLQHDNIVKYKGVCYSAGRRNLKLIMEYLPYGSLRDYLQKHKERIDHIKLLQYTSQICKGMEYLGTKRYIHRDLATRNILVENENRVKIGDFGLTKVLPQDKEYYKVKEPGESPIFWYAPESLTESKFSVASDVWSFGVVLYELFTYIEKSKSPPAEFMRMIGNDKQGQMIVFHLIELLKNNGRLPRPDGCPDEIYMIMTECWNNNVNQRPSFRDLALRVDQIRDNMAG
Chain of JAK3 (P52333 whole entry): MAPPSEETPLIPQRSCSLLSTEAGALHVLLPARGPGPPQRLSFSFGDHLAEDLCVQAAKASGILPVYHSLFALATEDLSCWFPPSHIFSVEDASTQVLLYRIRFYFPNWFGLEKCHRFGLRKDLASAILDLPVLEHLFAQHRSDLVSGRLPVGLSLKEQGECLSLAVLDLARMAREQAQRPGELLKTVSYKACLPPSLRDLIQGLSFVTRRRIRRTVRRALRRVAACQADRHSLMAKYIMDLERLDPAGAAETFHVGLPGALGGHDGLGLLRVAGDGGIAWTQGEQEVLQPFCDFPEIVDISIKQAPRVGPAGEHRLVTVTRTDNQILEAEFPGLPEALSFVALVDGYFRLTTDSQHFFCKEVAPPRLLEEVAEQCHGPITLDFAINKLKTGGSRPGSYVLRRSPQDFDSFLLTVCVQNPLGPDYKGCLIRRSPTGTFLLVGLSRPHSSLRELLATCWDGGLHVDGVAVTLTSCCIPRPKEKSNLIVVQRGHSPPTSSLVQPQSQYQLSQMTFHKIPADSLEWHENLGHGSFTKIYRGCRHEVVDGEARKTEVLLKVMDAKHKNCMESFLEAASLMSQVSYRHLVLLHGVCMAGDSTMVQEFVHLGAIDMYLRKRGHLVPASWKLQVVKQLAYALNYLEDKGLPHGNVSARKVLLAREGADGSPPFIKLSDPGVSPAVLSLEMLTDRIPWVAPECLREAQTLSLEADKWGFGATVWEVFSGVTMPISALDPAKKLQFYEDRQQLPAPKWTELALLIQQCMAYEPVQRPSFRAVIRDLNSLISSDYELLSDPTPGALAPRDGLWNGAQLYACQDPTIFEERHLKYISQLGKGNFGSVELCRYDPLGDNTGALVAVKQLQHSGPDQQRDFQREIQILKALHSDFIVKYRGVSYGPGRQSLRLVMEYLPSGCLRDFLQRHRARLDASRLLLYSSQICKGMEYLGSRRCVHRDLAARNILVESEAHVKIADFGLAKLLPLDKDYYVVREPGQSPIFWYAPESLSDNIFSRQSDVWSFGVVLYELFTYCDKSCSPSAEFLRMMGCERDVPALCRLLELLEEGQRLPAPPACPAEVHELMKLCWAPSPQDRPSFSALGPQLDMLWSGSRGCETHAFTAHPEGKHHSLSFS

Compound | Tyk 2 (pKi) (Tyk2) | JAK 1 (pKi) (JAK1) | JAK 2 (pKi) (JAK2) | other results
COc1cc(Nc2cc(CO)[nH]n2)nc(N(C)[C@@H]2C[C@H]3CCC[C@@H](C2)N3C(=O)C2CCC2)n1 [Example 3-8, cyclobutyl((1R,3s,5S)-3-((4-((5-(hydroxymethyl)-1H-pyrazol-3-yl)amino)-6-methoxypyrimidin-2-yl)(methyl)amino)-9-azabicyclo[3.3.1]nonan-9-yl)methanone] | B (B represents a pKi value between 9 and 10 (Ki between 1 nM and 0.1 nM)) | B (B represents a pKi value between 9 and 10 (Ki between 1 nM and 0.1 nM)) | B (B represents a pKi value between 9 and 10 (Ki between 1 nM and 0.1 nM)) | 
COc1cc(Nc2cc(CO)[nH]n2)nc(N[C@@H]2C[C@H]3CCC[C@@H](C2)N3Cc2cccnc2)n1 [Example 2-4, (3-((6-methoxy-2-(((1R,3s,5S)-9-(pyridin-3-ylmethyl)-9-azabicyclo[3.3.1]nonan-3-yl)amino)pyrimidin-4-yl)amino)-1H-pyrazol-5-yl)methanol] |  | B (B represents a pKi value between 9 and 10 (Ki between 1 nM and 0.1 nM)) |  | HT-29 (pIC50) [1]: B (B represents a pIC50 value between 6.7 and 7.5 (IC50 between 200 nM and 32 nM))
COc1cc(Nc2cc(CO)[nH]n2)nc(N(C)[C@@H]2C[C@H]3CCC[C@@H](C2)N3CC2(C#N)CC2)n1 [Example 2-6, 1-(((1R,3s,5S)-3-((4-((5-(hydroxymethyl)-1H-pyrazol-3-yl)amino)-6-methoxypyrimidin-2-yl)(methyl)amino)-9-azabicyclo[3.3.1]nonan-9-yl)methyl)cyclopropane-1-carbonitrile] | B (B represents a pKi value between 9 and 10 (Ki between 1 nM and 0.1 nM)) | B (B represents a pKi value between 9 and 10 (Ki between 1 nM and 0.1 nM)) | B (B represents a pKi value between 9 and 10 (Ki between 1 nM and 0.1 nM)) | JAK 3 (pKi) (JAK3): C (C represents a pKi value between 8 and 9 (Ki between 10 nM and 1 nM))
COc1cc(Nc2cc(CO)[nH]n2)nc(N[C@@H]2C[C@H]3CC[C@@H](C2)N3Cc2ccncc2)n1 [Example 2-1] |  | C (C represents a pKi value between 8 and 9 (Ki between 10 nM and 1 nM)) |  | HT-29 (pIC50) [1]: C (C represents a pIC50 value between 6 and 6.7 (IC50 between 1 μM and 200 nM))
COc1cc(Nc2cc(CO)[nH]n2)nc(N(C)[C@@H]2C[C@H]3CCC[C@@H](C2)N3C(=O)C2CCCC2)n1 [Example 3-7, cyclopentyl((1R,3s,5S)-3-((4-((5-(hydroxymethyl)-1H-pyrazol-3-yl)amino)-6-methoxypyrimidin-2-yl)(methyl)amino)-9-azabicyclo[3.3.1]nonan-9-yl)methanone] | B (B represents a pKi value between 9 and 10 (Ki between 1 nM and 0.1 nM)) | B (B represents a pKi value between 9 and 10 (Ki between 1 nM and 0.1 nM)) | B (B represents a pKi value between 9 and 10 (Ki between 1 nM and 0.1 nM)) | 
COC(=O)N1[C@@H]2CCC[C@H]1C[C@H](N(C)c1nc(Nc3cc(CO)[nH]n3)cc(OC)n1)C2 [Example 3-3, methyl (1R,3s,5S)-3-((4-((5-(hydroxymethyl)-1H-pyrazol-3-yl)amino)-6-methoxypyrimidin-2-yl)(methyl)amino)-9-azabicyclo[3.3.1]nonane-9-carboxylate] | C (C represents a pKi value between 8 and 9 (Ki between 10 nM and 1 nM)) | B (B represents a pKi value between 9 and 10 (Ki between 1 nM and 0.1 nM)) | B (B represents a pKi value between 9 and 10 (Ki between 1 nM and 0.1 nM)) | 
COc1cc(Nc2cc(CO)[nH]n2)nc(N(C)[C@@H]2C[C@H]3CCC[C@@H](C2)N3C(=O)C(F)F)n1 [Example 9, 2,2-difluoro-1-((1R,3s,5S)-3-((4-((5-(hydroxymethyl)-1H-pyrazol-3-yl)amino)-6-methoxypyrimidin-2-yl)(methyl)amino)-9-azabicyclo[3.3.1]nonan-9-yl)ethan-1-one] |  |  |  | Ki (Tyk2; read-out: Tyk 2 (pKi) (converted)): 0.1 to 1 nM; Ki (JAK3; read-out: JAK 3 (pKi) (converted)): 10 to 31.6 nM; Ki (JAK1): 0.1 to 1 nM; Ki (JAK2; read-out: JAK 2 (pKi) (converted)): 0.1 to 1 nM
COc1cc(Nc2cc(CO)[nH]n2)nc(N[C@@H]2C[C@H]3CC[C@@H](C2)N3S(=O)(=O)N2CC(C#N)C2)n1 [Example 1-2] |  |  |  | IC50 ([1]; Homo sapiens, read-out: HT-29 (pIC50) (converted)): 200 to 1000 nM; Ki (JAK1): 0.1 to 1 nM
COc1cc(Nc2cc(CO)[nH]n2)nc(N[C@@H]2C[C@H]3CCC[C@@H](C2)N3S(=O)(=O)c2ccccc2)n1 [Example 1-8, (3-((6-methoxy-2-(((1R,3s,5S)-9-(phenylsulfonyl)-9-azabicyclo[3.3.1]nonan-3-yl)amino)pyrimidin-4-yl)amino)-1H-pyrazol-5-yl)methanol] |  | A (A represents a pKi value≥10 (Ki≤0.1 nM)) |  | HT-29 (pIC50) [1]: A (A represents a pIC50 value≥7.5 (IC50≤32 nM))
COc1cc(Nc2cc(CO)[nH]n2)nc(N(C)[C@@H]2C[C@H]3CCC[C@@H](C2)N3C(=O)N2CCOCC2)n1 [Example 3-4, ((1R,3s,5S)-3-((4-((5-(hydroxymethyl)-1H-pyrazol-3-yl)amino)-6-methoxy-pyrimidin-2-yl)(methyl)amino)-9-azabicyclo[3.3.1]nonan-9-yl)(morpholino)methanone] | B (B represents a pKi value between 9 and 10 (Ki between 1 nM and 0.1 nM)) | B (B represents a pKi value between 9 and 10 (Ki between 1 nM and 0.1 nM)) | B (B represents a pKi value between 9 and 10 (Ki between 1 nM and 0.1 nM)) | 
COc1cc(Nc2cc(CO)[nH]n2)nc(N(C)[C@@H]2C[C@H]3CCC[C@@H](C2)N3C(=O)OCC(C)C)n1 [Example 3-2, isobutyl (1R,3s,5S)-3-((4-((5-(hydroxymethyl)-1H-pyrazol-3-yl)amino)-6-methoxypyrimidin-2-yl)(methyl)amino)-9-azabicyclo[3.3.1]nonane-9-carboxylate] | B (B represents a pKi value between 9 and 10 (Ki between 1 nM and 0.1 nM)) | B (B represents a pKi value between 9 and 10 (Ki between 1 nM and 0.1 nM)) | B (B represents a pKi value between 9 and 10 (Ki between 1 nM and 0.1 nM)) | 
COc1cc(Nc2cc(CO)[nH]n2)nc(N(C)[C@@H]2C[C@H]3CCC[C@@H](C2)N3C(C)=O)n1 [Example 3-6] | C (C represents a pKi value between 8 and 9 (Ki between 10 nM and 1 nM)) | B (B represents a pKi value between 9 and 10 (Ki between 1 nM and 0.1 nM)) | B (B represents a pKi value between 9 and 10 (Ki between 1 nM and 0.1 nM)) | 
COc1cc(Nc2cc(CO)[nH]n2)nc(N(C)[C@@H]2C[C@H]3CCC[C@@H](C2)N3C(=O)CC2CC2)n1 [Example 3-5, 2-cyclopropyl-1-((1R,3s,5S)-3-((4-((5-(hydroxymethyl)-1H-pyrazol-3-yl)amino)-6-methoxypyrimidin-2-yl)(methyl)amino)-9-azabicyclo[3.3.1]nonan-9-yl)ethan-1-one] | B (B represents a pKi value between 9 and 10 (Ki between 1 nM and 0.1 nM)) | B (B represents a pKi value between 9 and 10 (Ki between 1 nM and 0.1 nM)) | B (B represents a pKi value between 9 and 10 (Ki between 1 nM and 0.1 nM)) | 
